The source of these data is patent US20160108027A1, “SUBSTITUTED BENZOXAZOLES” (BAYER PHARMA AKTIENGESELLSCHAFT, priority 2013, published 2016).

Broadly, the IC50 is the concentration that gives 50% inhibition. Low values mean greater potency in that assay, high ones weaker potency in that assay.

The target of test [1] is T1, thrombin (Homo sapiens, UniProt P00734). In words: Determination of the thrombin-inhibitory activity in plasma samples (ecarin-activated). It is filed as biochemical. The conditions noted are these: citrate plasma, ecarin activation, fluorogenic thrombin substrate; in some cases means of individual determinations. The protocol:
To determine the inhibition of thrombin in plasma samples, plasma […] is activated by ecarin. Thrombin activity and/or its inhibition by potential inhibitors is/are then measured fluorenscently by addition of a substrate.
The substances to be tested are dissolved in various concentrations in dimethyl sulphoxide and diluted with water. In white 96-well flat-bottomed plates, 20 μl of substance dilution are mixed with 20 μl of ecarin solution (ecarin reagent, from Sigma E-0504, final concentration 20 mU per reaction) in Ca buffer (200 mM Hepes+560 mM sodium chloride+10 mM calcium chloride+0.4% PEG) or with 20 μl of Ca buffer (as unstimulated control). Furthermore, 20 μl of fluorogenic thrombin substrate (from Bachem 1-1120, final concentration 50 μmol/1) and 20 μl of citrate plasma (from Octapharma) are added, and the mixture is homogenized well. The plate is measured in a SpectraFluorplus Reader using a 360 nm excitation filter and a 465 nm emission filter every minute over 20 minutes. […] Representative activity data from this test are given in Table 2 below (in some cases as means of individual determinations): […]

Test [2] addresses T1, thrombin. In words: Measurement of the thrombin inhibition in buffer. It is filed as biochemical. The conditions noted are these: human thrombin 0.06 nmol/l in Tris buffer pH 7.4, 22° C., substrate Boc-Asp(OBzl)-Pro-Arg-AMC; in some cases means of individual determinations. How it is done:
To determine the thrombin inhibition of the substances listed above, a biochemical test system is constructed in which the conversion of a thrombin substrate is used for determining the enzymatic activity of human thrombin. Here, thrombin cleaves aminomethylcoumarin, which is measured fluorescently, from the peptic substrate. The determinations are carried out in microtitre plates.
Substances to be tested are dissolved in various concentrations in dimethyl sulphoxide and incubated for 15 min with human thrombin (0.06 nmol/l dissolved in 50 mmol/l of Tris buffer [C,C,C-tris(hydroxymethyl)aminomethane], 100 mmol/l of sodium chloride, 0.1% BSA [bovine serum albumin], pH 7.4) at 22° C. The substrate (5 μmol/l Boc-Asp(OBzl)-Pro-Arg-AMC from Bachem) is then added. After 30 min of incubation, the sample is excited at a wavelength of 360 nm and the emission is measured at 460 nm. The measured emissions of the test mixtures with test substance are compared to the control mixtures without test substance (only dimethyl sulphoxide instead of test substance in dimethyl sulphoxide) and IC50 values are calculated from the concentration/activity relationships. Representative activity data from this test are given in Table 1 below (in some cases as means of individual determinations): […]

As to `COc1cc(C(=O)N2CC(C)OCC2C2CC(O)C2)cc2nc(NCc3cc(Cl)ccn3)oc12` (single isomer, unassigned) [Example 50, (2-{[(4-Chloropyridin-2-yl)methyl]amino}-7-methoxy-1,3-benzoxazol-5-yl) [5-(3-hydroxycyclobutyl)-2-methylmorpholin-4-yl]methanone], the results for the IC50 against thrombin [1] and against thrombin [2] were 28 nM and 12 nM, respectively.

On to `COc1cc(C(=O)N2CC(C)OCC2C2CC(O)C2)cc2nc(NCc3cc(Cl)ccn3)oc12` (single isomer, unassigned) [Example 51, (2-{[(4-Chloropyridin-2-yl)methyl]amino}-7-methoxy-1,3-benzoxazol-5-yl) [5-(3-hydroxycyclobutyl)-2-methylmorpholin-4-yl]methanone], for which the IC50 on thrombin [1] was 17 nM; at thrombin [2] it was 8 nM.

Take `COc1cc(C(=O)N2CC(C)OCC2C2CC(O)C2)cc2nc(NCc3cc(Cl)ccn3)oc12` (single isomer, unassigned) [Example 52, (2-{[(4-Chloropyridin-2-yl)methyl]amino}-7-methoxy-1,3-benzoxazol-5-yl) [5-(3-hydroxycyclobutyl)-2-methylmorpholin-4-yl]methanone]: the IC50 was determined as 34 nM against thrombin [1] and 28 nM at thrombin [2].

Take `COc1cc(C(=O)N2CC(C)OCC23CC(O)C3)cc2nc(NCc3cc(Cl)ccn3)oc12` (single isomer, unassigned) [Example 53, (2-{[(4-Chloropyridin-2-yl)methyl]amino}-7-methoxy-1,3-benzoxazol-5-yl)(2-hydroxy-7-methyl-8-oxa-5-azaspiro[3.5]non-5-yl)methanone]: the half-inhibitory concentration (IC50) against thrombin [1] is 49 nM; on thrombin [2], 36 nM.

Consider `COc1cc(C(=O)N2CC(C)OCC2CC(C)(C)O)cc2nc(NCc3cc(Cl)ccn3)oc12` (single isomer, unassigned) [Example 56, (2-{[(4-Chloropyridin-2-yl)methyl]amino}-7-methoxy-1,3-benzoxazol-5-yl) [5-(2-hydroxy-2-methylpropyl)-2-methylmorpholin-4-yl]methanone], for which the results for the IC50 against thrombin [1] and at thrombin [2] were 57 nM and 25 nM, respectively.

On to `COc1cc(C(=O)N2CC(C)OCC2CC(C)(C)O)cc2nc(NCc3cc(Cl)ccn3)oc12` (single isomer, unassigned) [Example 57, (2-{[(4-Chloropyridin-2-yl)methyl]amino}-7-methoxy-1,3-benzoxazol-5-yl) [5-(2-hydroxy-2-methylpropyl)-2-methylmorpholin-4-yl]methanone], for which the IC50 against thrombin [1] is 30 nM; against thrombin [2], 20 nM.

In the case of `COc1cc(C(=O)N2CC(C)(CCO)OCC2COC(F)F)cc2nc(NCc3cc(Cl)ccn3)oc12` (single isomer, unassigned) [Example 60, (2-{[(4-Chloropyridin-2-yl)methyl]amino}-7-methoxy-1,3-benzoxazol-5-yl){5-[(difluoromethoxy)methyl]-2-(2-hydroxyethyl)-2-methylmorpholin-4-yl}methanone], the half-inhibitory concentration (IC50) against thrombin [1] was determined as 24 nM; on thrombin [2] it was 5.2 nM.

In the case of `COc1cc(C(=O)N2CCOC(C)(CC(C)O)C2)cc2nc(NCc3cc(Cl)ccn3)oc12` (single isomer, unassigned) [Example 61, (2-{[(4-Chloropyridin-2-yl)methyl]amino}-7-methoxy-1,3-benzoxazol-5-yl) [2-(2-hydroxypropyl)-2-methylmorpholin-4-yl]methanone], the IC50 stood at 100 nM on thrombin [1] and 24 nM on thrombin [2].

Turning to `COc1cc(C(=O)N2CC(C)(C)OCC2CC(C)O)cc2nc(NCc3cc(Cl)ccn3)oc12` (single isomer, unassigned) [Example 62, (2-{[(4-Chloropyridin-2-yl)methyl]amino}-7-methoxy-1,3-benzoxazol-5-yl) [5-(2-hydroxypropyl)-2,2-dimethylmorpholin-4-yl]methanone], the half-inhibitory concentration (IC50) is 107 nM at thrombin [1] and 68 nM against thrombin [2].

Take `COc1cc(C(=O)N2CC(C)(C)OCC2CC(C)O)cc2nc(NCc3cc(Cl)ccn3)oc12` (single isomer, unassigned) [Example 63, (2-{[(4-Chloropyridin-2-yl)methyl]amino}-7-methoxy-1,3-benzoxazol-5-yl) [5-(2-hydroxypropyl)-2,2-dimethylmorpholin-4-yl]methanone]: the half-maximal inhibitory concentration (IC50) stood at 20 nM on thrombin [1] and 11 nM against thrombin [2].

For the compound `COc1cc(C(=O)N2CC(C)(C)OCC2CC(C)O)cc2nc(NCc3cc(Cl)ccn3)oc12` (single isomer, unassigned) [Example 65, (2-{[(4-Chloropyridin-2-yl)methyl]amino}-7-methoxy-1,3-benzoxazol-5-yl) [5-(2-hydroxypropyl)-2,2-dimethylmorpholin-4-yl]methanone], the half-maximal inhibitory concentration (IC50) against thrombin [1] was found to be 61 nM; at thrombin [2], 24 nM.

For the compound `COc1cc(C(=O)N2CC(C)OCC2CC(C)O)cc2nc(NCc3cc(Cl)ccn3)oc12` (single isomer, unassigned) [Example 67, (2-{[(4-Chloropyridin-2-yl)methyl]amino}-7-methoxy-1,3-benzoxazol-5-yl) [5-(2-hydroxypropyl)-2-methylmorpholin-4-yl]methanone], the IC50 came to 38 nM on thrombin [1] and 16 nM against thrombin [2].

`COc1cc(C(=O)N2CC(C)OCC2CCO)cc2nc(NCc3cc(Cl)ccn3)oc12` (single isomer, unassigned) [Example 72, (2-{[(4-Chloropyridin-2-yl)methyl]amino}-7-methoxy-1,3-benzoxazol-5-yl) [5-(2-hydroxyethyl)-2-methylmorpholin-4-yl]methanone]: the IC50 against thrombin [1] is 37 nM; at thrombin [2], 29 nM.

Regarding `COCC1C(=O)N2CCC2CN1C(=O)c1cc(OC)c2oc(NCc3cc(Cl)ccn3)nc2c1` (single isomer, unassigned) [Example 74, 4-[(2-{[(4-Chloropyridin-2-yl)methyl]amino}-7-methoxy-1,3-benzoxazol-5-yl)carbonyl]-3-(methoxymethyl)-1,4-diazabicyclo[4.2.0]octan-2-one], the concentration for half-maximal inhibition (IC50) was determined as 56 nM on thrombin [1] and 32 nM at thrombin [2].

Take `COc1cc(C(=O)N2CC3CCN3C(=O)C2C)cc2nc(NCc3cc(Cl)ccn3)oc12` (single isomer, unassigned) [Example 75, 4-[(2-{[(4-Chloropyridin-2-yl)methyl]amino}-7-methoxy-1,3-benzoxazol-5-yl)carbonyl]-3-methyl-1,4-diazabicyclo[4.2.0]octan-2-one]: the IC50 against thrombin [1] is 48 nM; on thrombin [2], 32 nM.

With `COc1cc(C(=O)N2CC3(CC3)NC(=O)C2C)cc2nc(NCc3cc(Cl)ccn3)oc12` (single isomer, unassigned) [Example 77, 7-[(2-{[(4-Chloropyridin-2-yl)methyl]amino}-7-methoxy-1,3-benzoxazol-5-yl)carbonyl]-6-methyl-4,7-diazaspiro[2.5]octan-5-one], the figures for the half-inhibitory concentration (IC50) against thrombin [1] and on thrombin [2] were 23 nM and 14 nM, respectively.

Regarding `CCC1C(=O)NC2(CC2)CN1C(=O)c1cc(OC)c2oc(NCc3cc(Cl)ccn3)nc2c1` (single isomer, unassigned) [Example 79, 7-[(2-{[(4-Chloropyridin-2-yl)methyl]amino}-7-methoxy-1,3-benzoxazol-5-yl)carbonyl]-6-ethyl-4,7-diazaspiro[2.5]octan-5-one], the values for the IC50 against thrombin [1] and against thrombin [2] were 14 nM and 4.5 nM, respectively.

With `CCC1C(=O)NC(C)CN1C(=O)c1cc(OC)c2oc(NCc3cc(Cl)ccn3)nc2c1` (single isomer, unassigned) [Example 80, 4-[(2-{[(4-Chloropyridin-2-yl)methyl]amino}-7-methoxy-1,3-benzoxazol-5-yl)carbonyl]-3-ethyl-6-methylpiperazin-2-one], the 50% inhibitory concentration (IC50) on thrombin [1] and at thrombin [2] was 16 nM throughout.

As for `CCC1C(=O)NC(C)CN1C(=O)c1cc(OC)c2oc(NCc3cc(Cl)ccn3)nc2c1` (single isomer, unassigned) [Example 81, 4-[(2-{[(4-Chloropyridin-2-yl)methyl]amino}-7-methoxy-1,3-benzoxazol-5-yl)carbonyl]-3-ethyl-6-methylpiperazin-2-one], the 50% inhibitory concentration (IC50) against thrombin [1] came out at 32 nM; against thrombin [2], 12 nM.

In the case of `COc1cc(C(=O)N2CC(C)(C)NC(=O)C2CC#N)cc2nc(NCc3cc(Cl)ccn3)oc12` (single isomer, unassigned) [Example 84, {1-[(2-{[(4-chloropyridin-2-yl)methyl]amino}-7-methoxy-1,3-benzoxazol-5-yl)carbonyl]-5,5-dimethyl-3-oxopiperazin-2-yl}acetonitrile], the IC50 against thrombin [1] is 21 nM; on thrombin [2], 11 nM.
